# Measurements from US11931424B2, “Combination MCL-1 inhibitors with anti-body drug conjugates” (Gilead Sciences, Inc., priority 2021, dated 2024).
# Tested on: panel of breast cancer cell lines
# Experiment: Compound A with targeted agents and chemotherapies, 72-hour in vitro proliferation assays
# Type: cell-based
# Settings: compound A × partner, 72-hour proliferation
structure (smiles),measurement,setting,value
CC(=O)c1c(C)c2cnc(Nc3ccc(N4CCNCC4)cn3)nc2n(C2CCCC2)c1=O [PD-0332991],Best CI,AU565 cell line,1.01
same,Bliss Volume,AU565 cell line,−1.48
same,HSA volume,AU565 cell line,−4.75
same,Loewe Volume,AU565 cell line,−4.99
same,Synergy Score,AU565 cell line,1.50
same,Best CI,BT-20 cell line,1.30
same,Bliss Volume,BT-20 cell line,−2.05
same,HSA volume,BT-20 cell line,−0.62
same,Loewe Volume,BT-20 cell line,−1.20
same,Synergy Score,BT-20 cell line,3.95
same,Best CI,BT-549 cell line,1.07
same,Bliss Volume,BT-549 cell line,5.11
same,HSA volume,BT-549 cell line,3.60
same,Loewe Volume,BT-549 cell line,5.15
same,Synergy Score,BT-549 cell line,3.67
same,Best CI,CAL-51 cell line,0.82
same,Bliss Volume,CAL-51 cell line,−3.23
same,HSA volume,CAL-51 cell line,−1.09
same,Loewe Volume,CAL-51 cell line,−1.26
same,Synergy Score,CAL-51 cell line,0.38
same,Best CI,CAL-85-1 cell line,0.75
same,Bliss Volume,CAL-85-1 cell line,−7.60
same,HSA volume,CAL-85-1 cell line,−8.20
same,Loewe Volume,CAL-85-1 cell line,−7.47
same,Synergy Score,CAL-85-1 cell line,0.30
same,Best CI,CAL-120 cell line,1.81
same,Bliss Volume,CAL-120 cell line,−0.11
same,HSA volume,CAL-120 cell line,−7.17
same,Loewe Volume,CAL-120 cell line,−6.92
same,Synergy Score,CAL-120 cell line,0.11
same,Best CI,CAL-148 cell line,0.21
same,Bliss Volume,CAL-148 cell line,−2.31
same,HSA volume,CAL-148 cell line,−5.69
same,Loewe Volume,CAL-148 cell line,−4.24
same,Synergy Score,CAL-148 cell line,0.81
same,Best CI,CAMA-1 cell line,0.49
same,Bliss Volume,CAMA-1 cell line,−4.96
same,HSA volume,CAMA-1 cell line,−11.74
same,Loewe Volume,CAMA-1 cell line,−11.95
same,Synergy Score,CAMA-1 cell line,0.99
same,Best CI,DU-4475 cell line,0.97
same,Bliss Volume,DU-4475 cell line,0.05
same,HSA volume,DU-4475 cell line,−1.86
same,Loewe Volume,DU-4475 cell line,−0.06
same,Synergy Score,DU-4475 cell line,0.30
same,Best CI,EVSA-T cell line,0.77
same,Bliss Volume,EVSA-T cell line,−4.20
same,HSA volume,EVSA-T cell line,−6.37
same,Loewe Volume,EVSA-T cell line,−5.67
same,Synergy Score,EVSA-T cell line,0.21
same,Best CI,HCC38,0.19
same,Bliss Volume,HCC38,−13.23
same,HSA volume,HCC38,−17.15
same,Loewe Volume,HCC38,−16.79
same,Synergy Score,HCC38,0.01
same,Best CI,HCC70,0.68
same,Bliss Volume,HCC70,4.80
same,HSA volume,HCC70,3.64
same,Loewe Volume,HCC70,4.83
same,Synergy Score,HCC70,8.66
same,Best CI,HCC1143,0.75
same,Bliss Volume,HCC1143,−2.16
same,HSA volume,HCC1143,−3.77
same,Loewe Volume,HCC1143,−0.95
same,Synergy Score,HCC1143,1.96
same,Best CI,HCC1569,0.78
same,Bliss Volume,HCC1569,8.10
same,HSA volume,HCC1569,4.93
same,Loewe Volume,HCC1569,8.19
same,Synergy Score,HCC1569,5.78
same,Best CI,HCC1806,0.02
same,Bliss Volume,HCC1806,−1.37
same,HSA volume,HCC1806,−4.31
same,Loewe Volume,HCC1806,−1.04
same,Synergy Score,HCC1806,0.99
same,Best CI,HCC1937,0.28
same,Bliss Volume,HCC1937,14.96
same,HSA volume,HCC1937,11.05
same,Loewe Volume,HCC1937,14.74
same,Synergy Score,HCC1937,21.45
same,Best CI,HCC1954,0.47
same,Bliss Volume,HCC1954,−7.91
same,HSA volume,HCC1954,−8.72
same,Loewe Volume,HCC1954,−7.32
same,Synergy Score,HCC1954,1.20
same,Best CI,HCC2218,1.10
same,Bliss Volume,HCC2218,−0.96
same,HSA volume,HCC2218,−1.25
same,Loewe Volume,HCC2218,−3.22
same,Synergy Score,HCC2218,7.27
same,Best CI,HDQ-P1,0.36
same,Bliss Volume,HDQ-P1,0.47
same,HSA volume,HDQ-P1,−6.53
same,Loewe Volume,HDQ-P1,−11.86
same,Synergy Score,HDQ-P1,0.17
same,Best CI,HMC-1-8,0.47
same,Bliss Volume,HMC-1-8,13.91
same,HSA volume,HMC-1-8,7.82
same,Loewe Volume,HMC-1-8,8.09
same,Synergy Score,HMC-1-8,12.76
CN(C)C(=O)c1cc2cnc(Nc3ccc(N4CCNCC4)cn3)nc2n1C1CCCC1 [LEE011],Best CI,AU565 cell line,1.01
same,Bliss Volume,AU565 cell line,−1.41
same,HSA volume,AU565 cell line,−6.50
same,Loewe Volume,AU565 cell line,−4.57
same,Synergy Score,AU565 cell line,1.58
same,Best CI,BT-20 cell line,0.78
same,Bliss Volume,BT-20 cell line,−2.26
same,HSA volume,BT-20 cell line,−1.79
same,Loewe Volume,BT-20 cell line,−2.17
same,Synergy Score,BT-20 cell line,2.30
same,Best CI,CAL-51 cell line,0.77
same,Bliss Volume,CAL-51 cell line,−1.68
same,HSA volume,CAL-51 cell line,−1.56
same,Loewe Volume,CAL-51 cell line,−1.27
same,Synergy Score,CAL-51 cell line,0.34
same,Best CI,CAL-85-1 cell line,0.64
same,Bliss Volume,CAL-85-1 cell line,−5.58
same,HSA volume,CAL-85-1 cell line,−9.15
same,Loewe Volume,CAL-85-1 cell line,−7.95
same,Synergy Score,CAL-85-1 cell line,0.23
same,Best CI,CAL-120 cell line,0.62
same,Bliss Volume,CAL-120 cell line,−1.14
same,HSA volume,CAL-120 cell line,−5.68
same,Loewe Volume,CAL-120 cell line,−5.28
same,Synergy Score,CAL-120 cell line,0.15
same,Best CI,CAL-148 cell line,0.86
same,Bliss Volume,CAL-148 cell line,−4.27
same,HSA volume,CAL-148 cell line,−5.99
same,Loewe Volume,CAL-148 cell line,−4.10
same,Synergy Score,CAL-148 cell line,0.81
same,Best CI,CAMA-1 cell line,0.73
same,Bliss Volume,CAMA-1 cell line,−3.85
same,Loewe Volume,CAMA-1 cell line,−6.51
same,Synergy Score,CAMA-1 cell line,1.09
same,Best CI,DU-4475 cell line,0.47
same,Bliss Volume,DU-4475 cell line,1.64
same,HSA volume,DU-4475 cell line,0.20
same,Loewe Volume,DU-4475 cell line,1.04
same,Synergy Score,DU-4475 cell line,0.98
same,Best CI,EVSA-T cell line,0.63
same,Bliss Volume,EVSA-T cell line,−0.43
same,HSA volume,EVSA-T cell line,−2.18
same,Synergy Score,EVSA-T cell line,0.34
same,Best CI,HCC38,0.44
same,Bliss Volume,HCC38,−4.85
same,HSA volume,HCC38,−8.61
same,Loewe Volume,HCC38,−9.77
same,Synergy Score,HCC38,1.12
same,Best CI,HCC70,0.93
same,Bliss Volume,HCC70,−0.15
same,HSA volume,HCC70,0.16
same,Loewe Volume,HCC70,0.49
same,Synergy Score,HCC70,6.12
same,Bliss Volume,HCC1143,−3.25
same,HSA volume,HCC1143,−7.75
same,Loewe Volume,HCC1143,−9.95
same,Synergy Score,HCC1143,1.30
same,Best CI,HCC1569,0.47
same,Bliss Volume,HCC1569,5.70
same,HSA volume,HCC1569,1.89
same,Loewe Volume,HCC1569,5.08
same,Synergy Score,HCC1569,3.87
same,Best CI,HCC1806,0.56
same,Bliss Volume,HCC1806,−3.98
same,HSA volume,HCC1806,−8.72
same,Loewe Volume,HCC1806,−4.05
same,Synergy Score,HCC1806,0.65
same,Best CI,HCC1937,0.74
same,Bliss Volume,HCC1937,2.31
same,HSA volume,HCC1937,−2.66
same,Loewe Volume,HCC1937,1.04
same,Synergy Score,HCC1937,2.13
same,Best CI,HCC1954,0.72
same,Bliss Volume,HCC1954,−0.75
same,Loewe Volume,HCC1954,−1.17
same,Synergy Score,HCC1954,4.48
same,Best CI,HCC2218,0.73
same,Bliss Volume,HCC2218,−5.40
same,HSA volume,HCC2218,−4.99
same,Loewe Volume,HCC2218,−5.90
same,Synergy Score,HCC2218,1.69
same,Best CI,HDQ-P1,0.04
same,Bliss Volume,HDQ-P1,−2.80
same,HSA volume,HDQ-P1,−6.22
same,Loewe Volume,HDQ-P1,−9.02
same,Synergy Score,HDQ-P1,0.15
same,Best CI,HMC-1-8,0.81
same,Bliss Volume,HMC-1-8,9.82
same,HSA volume,HMC-1-8,5.13
same,Loewe Volume,HMC-1-8,5.78
same,Synergy Score,HMC-1-8,9.01
same,Best CI,JIMT-1,0.00
same,Bliss Volume,JIMT-1,0.29
same,HSA volume,JIMT-1,−2.46
same,Loewe Volume,JIMT-1,−4.06
same,Synergy Score,JIMT-1,0.28
same,Best CI,KPL-1,0.65
same,Bliss Volume,KPL-1,0.36
same,HSA volume,KPL-1,−0.31
same,Synergy Score,KPL-1,1.43
